US8952024B2, “Herbicidal pyrimidone derivatives” (E I du Pont de Nemours and Company, priority 2009, dated 2015)

Columns and labels:
Format in all cases: in vivo
[1] = tested on: Italian ryegrass (Lolium multiflorum); test: Test B pre-/postemergence plant response
Summary of the method: (§1)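 Pre-em in loam/sand; post-em at 1–4 leaf (2–18 cm) in peat mix. Solvent + surfactant formulation. Greenhouse 13–15 d; visual % control vs untreated, 0–100.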

[2] = tested on: Russian thistle (Salsola kali); test: Test B pre-/postemergence plant response; settings: Preemergence
Summary of the method: as §1

[3] = tested on: galium (catchweed bedstraw, Galium aparine); test: Test B pre-/postemergence plant response
Summary of the method: as §1

[4] = tested on: giant foxtail (Setaria faberii); test: Test B pre-/postemergence plant response
Summary of the method: as §1

[5] = tested on: nightshade (eastern black nightshade, Solanum ptycanthum); test: Test B pre-/postemergence plant response; settings: Preemergence
Summary of the method: as §1

[6] = tested on: ragweed (common ragweed, Ambrosia elatior); test: Test B pre-/postemergence plant response
Summary of the method: as §1

[7] = tested on: sunflower (common oilseed sunflower, Helianthus annuus); test: Test B pre-/postemergence plant response; settings: Preemergence
Summary of the method: as §1

[8] = tested on: canarygrass (Phalaris minor); test: Test B postemergence plant response
Summary of the method: (§2)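 Plants grown in peat/vermiculite medium were sprayed postemergence at 2–18 cm height (1- to 4-leaf stage). After 13–15 days in the greenhouse, response was rated visually against untreated controls on a 0–100 scale (0 no effect, 100 complete control).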

[9] = tested on: chickweed (Stellaria media); test: Test B postemergence plant response
Summary of the method: as §2

[10] = tested on: windgrass (Apera spica-venti); test: Test B postemergence plant response
Summary of the method: as §2

[11] = tested on: winter barley (Hordeum vulgare); test: Test B postemergence plant response
Summary of the method: as §2

[12] = tested on: barnyardgrass (Echinochloa crus-galli); test: Test B flooded paddy test; settings: for Plant response rating, Flood, Barnyardgrass: 250 g ai/ha, flooded paddy test, visual rating on 0 to 100 scale (0 no effect, 100 complete control) after 13 to 15 days; for Plant response rating, Barnyardgrass: Flood (flooded paddy test), 13 to 15 days; for Barnyardgrass plant response rating: Flood, 31 g ai/ha, scale 0 to 100 (0 no effect, 100 complete control)
Summary of the method: (§3)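 Flooded-pot test: water raised to 3 cm above soil when treating, compound put in the water, level unchanged thereafter. Plants were at 2 leaves. Readout after 13 to 15 days, visual, relative to controls; 0 signifies no effect and 100 complete control.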

[13] = tested on: ducksalad (Heteranthera limosa); test: Test B flooded paddy test; settings: for Plant response rating, Flood, Ducksalad: 250 g ai/ha, flooded paddy test, visual rating on 0 to 100 scale (0 no effect, 100 complete control) after 13 to 15 days; for Plant response rating, Ducksalad: Flood (flooded paddy test), 13 to 15 days; for Ducksalad plant response rating: Flood, 31 g ai/ha, scale 0 to 100 (0 no effect, 100 complete control)
Summary of the method: as §3

rice (Oryza sativa) = test: Test B flooded paddy test; settings: for Plant response rating, Flood, Rice: 250 g ai/ha, flooded paddy test, visual rating on 0 to 100 scale (0 no effect, 100 complete control) after 13 to 15 days; for Plant response rating, Rice: Flood (flooded paddy test), 13 to 15 days; for Rice plant response rating: Flood, 31 g ai/ha, scale 0 to 100 (0 no effect, 100 complete control)
Summary of the method: as §3

[14] = tested on: umbrella sedge (Cyperus difformis); test: Test B flooded paddy test; settings: for Plant response rating, Flood, Sedge, Umbrella: 250 g ai/ha, flooded paddy test, visual rating on 0 to 100 scale (0 no effect, 100 complete control) after 13 to 15 days; for Plant response rating, Sedge, Umbrella: Flood (flooded paddy test), 13 to 15 days; for Sedge, Umbrella plant response rating: Flood, 31 g ai/ha, scale 0 to 100 (0 no effect, 100 complete control)
Summary of the method: as §3

[15] = Postemergence, 31 g ai/ha, 0 to 100 scale (0 no effect, 100 complete control)
[16] = Postemergence, 250 g ai/ha, scale 0 to 100 (0 no effect, 100 complete control), 13 to 15 days
[17] = Postemergence, 62 g ai/ha, scale 0 to 100 (0 no effect, 100 complete control)
[18] = Preemergence, 31 g ai/ha, scale 0 to 100 (0 no effect, 100 complete control)
[19] = Preemergence, 62 g ai/ha, scale 0 to 100, 0 no effect, 100 complete control
[20] = Preemergence, 125 g ai/ha, scale 0 to 100, 0 no effect, 100 complete control
[21] = Preemergence, 250 g ai/ha, 0 to 100 scale
[22] = 31 g ai/ha, scale 0 to 100 (0 no effect, 100 complete control)
[23] = 62 g ai/ha, scale 0 to 100, 0 no effect, 100 complete control
[24] = 125 g ai/ha, scale 0 to 100, 0 no effect, 100 complete control
[25] = Postemergence, 125 g ai/ha, scale 0 to 100 (0 no effect, 100 complete control)
[26] = 62 g ai/ha, scale of 0 to 100 where 0 is no effect and 100 is complete control
[27] = 125 g ai/ha, scale 0 to 100, 0 is no effect, 100 is complete control
[28] = 31 g ai/ha, postemergence, scale 0 to 100, 0 is no effect, 100 is complete control
[29] = 62 g ai/ha, postemergence, 0 is no effect, 100 is complete control, 13 to 15 days
[30] = Postemergence, 125 g ai/ha, visual rating after 13 to 15 days, scale 0 (no effect) to 100 (complete control)
[31] = Postemergence, 250 g ai/ha, scale 0 to 100 (0 no effect, 100 complete control)
[32] = 250 g ai/ha, Preemergence, 0 to 100 scale

## CCCCn1c(C2CC2)ncc(C(=O)C2=C(O)CCCC2=O)c1=O [Compound 193]
[1]; [15]
  Plant response rating, Ryegrass, Italian: 5
[1]; [16]
  Plant response rating, Ryegrass, Italian: 45
[1]; [17]
  Plant response rating, Ryegrass, Italian: 40
[1]; [18]
  Plant response rating, Ryegrass, Italian: 0
[1]; [19]
  Plant response rating, Ryegrass, Italian: 0
[1]; [20]
  Plant response rating, Ryegrass, Italian: 25
[1]; [21]
  Ryegrass, Italian plant response rating: 45
[2]; [22]
  Plant response rating, Russian Thistle: 90
[2]; [23]
  Plant response rating, Russian Thistle: 98
[2]; [24]
  Plant response rating, Russian Thistle: 100
[2]; 250 g ai/ha, 0 to 100 scale
  Russian Thistle plant response rating: 100
[3]; [15]
  Plant response rating, Galium: 75
[3]; [25]
  Plant response rating, Galium: 90
[3]; [16]
  Plant response rating, Galium: 90
[3]; [18]
  Plant response rating, Galium: 75
[3]; [19]
  Plant response rating, Galium: 100
[3]; [20]
  Plant response rating, Galium: 100
[3]; [21]
  Galium plant response rating: 100
[4]; [15]
  Plant response rating, Foxtail, Giant: 75
[4]; [25]
  Plant response rating, Foxtail, Giant: 95
[4]; [16]
  Plant response rating, Foxtail, Giant: 100
[4]; [17]
  Plant response rating, Foxtail, Giant: 85
[4]; [18]
  Plant response rating, Foxtail, Giant: 0
[4]; [19]
  Plant response rating, Foxtail, Giant: 65
[4]; [20]
  Plant response rating, Foxtail, Giant: 70
[4]; [21]
  Foxtail, Giant plant response rating: 80
[5]; [22]
  Plant response rating, Nightshade: 100
[5]; [23]
  Plant response rating, Nightshade: 100
[5]; [24]
  Plant response rating, Nightshade: 100
[5]; 250 g ai/ha, 0 to 100 scale
  Nightshade plant response rating: 100
[6]; [18]
  Plant response rating, Ragweed: 100
[6]; [19]
  Plant response rating, Ragweed: 100
[6]; [20]
  Plant response rating, Ragweed: 100
[6]; [21]
  Ragweed plant response rating: 100
[7]; [22]
  Plant response rating, Sunflower: 70
[7]; [23]
  Plant response rating, Sunflower: 80
[7]; [24]
  Plant response rating, Sunflower: 80
[7]; 250 g ai/ha, 0 to 100 scale
  Sunflower plant response rating: 95
[8]; [15]
  Plant response rating, Canarygrass: 5
[8]; [25]
  Plant response rating, Canarygrass: 25
[8]; [16]
  Plant response rating, Canarygrass: 25
[8]; [17]
  Plant response rating, Canarygrass: 5
[9]; [15]
  Plant response rating, Chickweed: 95
[9]; [25]
  Plant response rating, Chickweed: 100
[9]; [16]
  Plant response rating, Chickweed: 100
[9]; [17]
  Plant response rating, Chickweed: 98
[10]; [15]
  Plant response rating, Windgrass: 50
[10]; [16]
  Plant response rating, Windgrass: 75
[10]; [17]
  Plant response rating, Windgrass: 70
[11]; [15]
  Plant response rating, Barley: 0
[11]; [25]
  Plant response rating, Barley: 50
[11]; [16]
  Plant response rating, Barley: 50
[11]; [17]
  Plant response rating, Barley: 0
[12]
  Plant response rating, Flood, Barnyardgrass: 50
  Barnyardgrass plant response rating: 0
[12]; [26]
  Plant response rating, Barnyardgrass: 20
[12]; [27]
  Plant response rating, Barnyardgrass: 45
[13]
  Plant response rating, Flood, Ducksalad: 100
  Ducksalad plant response rating: 40
[13]; [26]
  Plant response rating, Ducksalad: 50
[13]; [27]
  Plant response rating, Ducksalad: 85
Rice (Oryza sativa)
  Plant response rating, Flood, Rice: 65
  Rice plant response rating: 0
Rice (Oryza sativa); [26]
  Plant response rating, Rice: 15
Rice (Oryza sativa); [27]
  Plant response rating, Rice: 30
[14]
  Plant response rating, Flood, Sedge, Umbrella: 90
  Sedge, Umbrella plant response rating: 0
[14]; [26]
  Plant response rating, Sedge, Umbrella: 30
[14]; [27]
  Plant response rating, Sedge, Umbrella: 70

## CC(C)Cc1ncc(C(=O)C2=C(O)CCCC2=O)c(=O)n1-c1ccccc1 [Compound 68]
[1]; [28]
  Plant response rating, Ryegrass, Italian: 5
[1]; [29]
  Ryegrass, Italian plant response rating (0 to 100 scale): 5
[1]; [30]
  Plant response rating, Ryegrass, Italian: 15
[1]; [31]
  Plant response rating, Ryegrass, Italian: 50
[1]; [18]
  Plant response rating, Ryegrass, Italian: 0
[1]; [19]
  Plant response rating, Ryegrass, Italian: 0
[1]; [20]
  Plant response rating, Ryegrass, Italian: 0
[2]; [24]
  Plant response rating, Russian Thistle: 80
[3]; [32]
  Plant response rating, Galium: 85
[3]; [18]
  Plant response rating, Galium: 0
[3]; [19]
  Plant response rating, Galium: 70
[3]; [20]
  Plant response rating, Galium: 70
[4]; [28]
  Plant response rating, Foxtail, Giant: 65
[4]; [29]
  Foxtail, Giant plant response rating (0 to 100 scale): 80
[4]; [32]
  Plant response rating, Foxtail, Giant: 75
[4]; [30]
  Plant response rating, Foxtail, Giant: 85
[4]; [31]
  Plant response rating, Foxtail, Giant: 90
[4]; [18]
  Plant response rating, Foxtail, Giant: 0
[4]; [19]
  Plant response rating, Foxtail, Giant: 20
[4]; [20]
  Plant response rating, Foxtail, Giant: 55
[5]; [22]
  Plant response rating, Nightshade: 98
[5]; [23]
  Plant response rating, Nightshade: 98
[5]; [24]
  Plant response rating, Nightshade: 100
[6]; [28]
  Plant response rating, Ragweed: 75
[6]; [29]
  Ragweed plant response rating (0 to 100 scale): 80
[6]; [30]
  Plant response rating, Ragweed: 80
[6]; [31]
  Plant response rating, Ragweed: 95
[6]; [18]
  Plant response rating, Ragweed: 10
[6]; [19]
  Plant response rating, Ragweed: 75
[6]; [20]
  Plant response rating, Ragweed: 80
[7]; [22]
  Plant response rating, Sunflower: 0
[7]; [23]
  Plant response rating, Sunflower: 60
[7]; [24]
  Plant response rating, Sunflower: 75
[8]; [28]
  Plant response rating, Canarygrass: 0
[8]; [29]
  Canarygrass plant response rating (0 to 100 scale): 0
[8]; [30]
  Plant response rating, Canarygrass: 35
[8]; [31]
  Plant response rating, Canarygrass: 35
[9]; [28]
  Plant response rating, Chickweed: 85
[9]; [29]
  Chickweed plant response rating (0 to 100 scale): 90
[9]; [30]
  Plant response rating, Chickweed: 98
[9]; [31]
  Plant response rating, Chickweed: 100
[10]; [28]
  Plant response rating, Windgrass: 40
[10]; [29]
  Windgrass plant response rating (0 to 100 scale): 50
[10]; [30]
  Plant response rating, Windgrass: 65
[10]; [31]
  Plant response rating, Windgrass: 85
[11]; [28]
  Plant response rating, Barley: 0
[11]; [29]
  Barley plant response rating (0 to 100 scale): 0
[11]; [30]
  Plant response rating, Barley: 25
[11]; [31]
  Plant response rating, Barley: 30
[12]
  Plant response rating, Flood, Barnyardgrass: 20
  Barnyardgrass plant response rating: 0
[12]; [26]
  Plant response rating, Barnyardgrass: 0
[12]; [27]
  Plant response rating, Barnyardgrass: 0
[13]
  Plant response rating, Flood, Ducksalad: 40
  Ducksalad plant response rating: 0
[13]; [26]
  Plant response rating, Ducksalad: 0
[13]; [27]
  Plant response rating, Ducksalad: 30
Rice (Oryza sativa)
  Plant response rating, Flood, Rice: 30
  Rice plant response rating: 0
Rice (Oryza sativa); [26]
  Plant response rating, Rice: 15
Rice (Oryza sativa); [27]
  Plant response rating, Rice: 20
[14]
  Plant response rating, Flood, Sedge, Umbrella: 0
  Sedge, Umbrella plant response rating: 0
[14]; [26]
  Plant response rating, Sedge, Umbrella: 0
[14]; [27]
  Plant response rating, Sedge, Umbrella: 0
